Laboratory results as given in PMC11842588, “A first-in-class selective inhibitor of ERK1/2 and ERK5 overcomes drug resistance with a single-molecule strategy” (Signal Transduction and Targeted Therapy, 2025).
Where “and” joins values, the source holds several entries; their conditions need not be identical. Identical values can stand only once. Like-named read-outs stand apart in the source and are kept apart here.

Legend:
MDA-MB-231 xenograft = MDA-MB-231 xenograft tumor growth inhibition; assay type: in vivo, nude mice (BALB/c-nu); settings: 50 mg/kg (each drug), intragastric once daily, 16 days, by tumor weight
Experimental: (§1) All procedures were performed in accordance with the Laboratory Animals Welfare Act, the Guide for the Care and Use of Laboratory Animals and the Guidelines and Policies. The rodent experiment was approved by IACUC (Institutional Animal Care and Use Committee) in the Experimental Animal Ethics Committee of West China Hospital (Approval No. 2021672A). 48 female nude mice (BALB/c-nu, 5 weeks, 15–18 g, purchased from Beijing HFK Bio-Technology Co., LTD) were acclimatized for one week in an SPF-grade animal facility (ventilated, 20–25 °C, 50–60% humidity). […] When the tumor volume reached approximately 100 mm^3 (V = L × W^2/2), the mice were randomly divided into six groups (n = 8 per group): (1) Control group (normal saline); (2) 25 mg/kg SKLB-D18-treated group; (3) 50 mg/kg SKLB-D18-treated group; (4) 50 mg/kg BVD-523-treated group; (5) 50 mg/kg XMD8-92-treated group; (6) BVD-523 (50 mg/kg) and XMD8-92 (50 mg/kg) combined treatment group. Drugs were freshly prepared with 5% DMSO, 10% Solutol HS-15, and 85% normal saline on the day of administration. Intragastric administration occurred once daily at the same time for 16 consecutive days. And the body weight and tumor volume of mice were measured every three days. After the administration period, all nude mice were euthanized by cervical dislocation the next day. Tumors and vital organs (heart, liver, spleen, lung, kidney) were dissected, and tumors were weighed, then immediately fixed in 4% paraformaldehyde or stored in −80 °C.

MDA-MB-468 cells = experiment: MTT cell viability assay; assay type: cell-based
Experimental: (§2) MDA-MB-468 and MDA-MB-436 cells were cultured in Leibovitz’s L-15 medium supplemented with 10% fetal bovine serum. […] All of the cells were cultured at 37 °C in a humidified atmosphere containing 5% CO2.
(§3) Cancer cells were seeded in a density in 96-well plates (2 × 10^3 cells per well). After incubation for 24 h, cancer cells were treated with compounds (0–20 μM) for 72 h.

BT549 cells = experiment: MTT cell viability assay; assay type: cell-based; settings: Homo sapiens, BT-549, 72 h
Experimental: as §2, §3

MDA-MB-436 cells = experiment: MTT cell viability assay; assay type: cell-based; settings: Homo sapiens, 72 h
Experimental: as §2, §3

MDA-MB-231 cells = experiment: MTT cell viability assay; assay type: cell-based
Experimental: as §2, §3

MAPK2(h) = experiment: Kinase profiling; assay type: biochemical, human; settings: 1 μM
Experimental: 380 kinases inhibitory activities of SKLB-D18 were conducted by Eurofins Cerep SA. The result was illustrated by kinase tree (http://www.kinhub.org/kinmap/).

Pharmacokinetic study = assay type: in vivo; settings: rat, plasma, SD rats; for Vd: SD, 1 mg/kg
Experimental: SKLB-D18 was formulated using a composition of 10% DMSO, 10% Solutol, and 80% (20% HP-β-CD). SKLB-D18 was administered via intravenous injection (1 mg/kg) and intragastric administration (10 mg/kg) on SD rats. At various time points post-administration (0.25 h, 0.5 h, 1 h, 2 h, 4 h, 6 h, 8 h, 24 h), blood samples (0.2 mL) were collected and centrifuged (6800 × g, 6 min, 2–8 °C) to separate plasma. Plasma samples were precipitated with methanol, vortexed, and centrifuged (18,000 × g, 4 °C, 7 min); the supernatant was analyzed using LC-MS/MS. Parameters such as AUC0-t, AUC0-∞, Cmax, Tmax, and T1/2 were calculated using Phoenix WinNonlin 7.0.

[1] = test system: Caco-2 cell monolayer model; experiment: Caco-2 bidirectional transport; assay type: in vitro ADME; settings: Caco-2, 120 min
Experimental: (§4) Caco-2 cells were inoculated in a Transwell chamber with a pore size of 0.4 μm, and cultured for 15–20 days, the formation of the monolayer cell model was verified by the permeability determination of fluorescein sodium. Then a certain concentration of culture-medium containing candidate compounds was added to the upper and lower sides of different groups of cells, and the culture-medium at the corresponding position was absorbed after the specified time. After the internal standard compound was added, the content of candidate compounds was determined by LC-MS/MS to investigate the apparent permeability and effection rate, and to analyze the bidirectional transport characteristics of candidate compounds in the Caco-2 cell monolayer model.

[2] = Caco-2 bidirectional transport; assay type: in vitro ADME; settings: human
Experimental: as §4

Ki-67 = experiment: IHC of Ki-67 in xenograft tumor tissue; assay type: in vivo, nude mice (BALB/c-nu); settings: 50 mg/kg
Experimental: as §1, with “Intragastric administration occurred once daily at the same time for 16 consecutive days.” left out, “After the administration period, all nude mice were euthanized by cervical dislocation the next day. Tumors and vital organs (heart, liver, spleen, lung, kidney) were dissected, and tumors were weighed, then immediately fixed in 4% paraformaldehyde or stored in −80 °C.” left out
Briefly, tumor tissues were dehydrated, embedded, and sectioned. […] Microscopic analysis and imaging were performed, analyzed with ImageJ, and statistical graphs were created using GraphPad Prism 9.5. […]

[3] = Body weight and adverse effects in xenograft study; assay type: in vivo, nude mice (BALB/c-nu); settings: 25 and 50 mg/kg orally daily for 16 days
Experimental: as §1, with “Tumors and vital organs (heart, liver, spleen, lung, kidney) were dissected, and tumors were weighed, then immediately fixed in 4% paraformaldehyde or stored in −80 °C.” left out

Question: With `CN(C)Cc1cccc(Nc2ncc(Cl)c(-c3csc(C(=O)NN4CCOCC4)c3)n2)c1` [SKLB-D18, 4-(5-chloro-2-((3-((dimethylamino)methyl)phenyl)amino)pyrimidin-4-yl)-N-morpholinothiophene-2-carboxamide] as the compound, how does the tumor inhibition rate (MDA-MB-231 xenograft) read?
Answer: Its tumor inhibition rate is 79.88%.

Question: And the “Anti-proliferative activity (10 μM, %) MDA-MB-468” value (MDA-MB-468 cells; 10 μM)?
Answer: Its value is 92.18 ± 0.93%.

Question: What about the IC50 (MDA-MB-468 cells; Homo sapiens, MDA-MB-468, MTT, 72 h) of the same compound?
Answer: Its IC50 is 1050 ± 130 nM.

Question: And the IC50 (BT549 cells)?
Answer: Its IC50 is 3210 ± 340 nM.

Question: What about the IC50 (MDA-MB-436 cells) of the same compound?
Answer: The IC50 was 2310 ± 290 nM.

Question: What about the “Anti-proliferative activity (10 μM, %) MDA-MB-231” value (MDA-MB-231 cells; 10 μM) of the same compound?
Answer: The value was 93.44 ± 1.21%.

Question: And the IC50 (MDA-MB-231 cells; Homo sapiens, MDA-MB-231, read-out: IC50 MDA-MB-231, MTT, 72 h)?
Answer: The IC50 was 930 ± 110 nM.

Question: And the Inhibition% (MAPK2(h))?
Answer: Its Inhibition% is 56%.

Question: What about the Vd (Pharmacokinetic study; iv, i.v. 1 mg/kg, read-out: Vss) of the same compound?
Answer: The Vd was 17 ± 0.568 L/kg.

Question: And the Vd (Pharmacokinetic study; iv, i.v. 1 mg/kg, read-out: Vz)?
Answer: Its Vd is 20.2 ± 1.38 L/kg.

Question: What about the AUC(0-inf) (Pharmacokinetic study; iv, i.v. 1 mg/kg) of the same compound?
Answer: The AUC(0-inf) was 143 ± 6.6 ng·h/mL.

Question: What about the AUC(0-t) (Pharmacokinetic study; iv, i.v. 1 mg/kg) of the same compound?
Answer: The AUC(0-t) was 136 ± 5.73 ng·h/mL.

Question: And the Cmax (Pharmacokinetic study; iv, i.v. 1 mg/kg)?
Answer: Its Cmax is 58.7 ± 7.22 ng/mL.

Question: What about the half-life (Pharmacokinetic study; iv, i.v. 1 mg/kg) of the same compound?
Answer: The half-life was 2.01 ± 0.16 h.

Question: What about the clearance (Pharmacokinetic study; iv, i.v. 1 mg/kg, read-out: CL (mL/(min·kg))) of the same compound?
Answer: Its clearance is 117 ± 5.45 mL/min/kg.

Question: And the bioavailability (Pharmacokinetic study; oral, p.o. 10 mg/kg vs i.v. 1 mg/kg)?
Answer: The bioavailability was 22.4%.

Question: What about the AUC(0-inf) (Pharmacokinetic study; po, p.o. 10 mg/kg) of the same compound?
Answer: The AUC(0-inf) was 457 ng·h/mL.

Question: What about the AUC(0-t) (Pharmacokinetic study; po, p.o. 10 mg/kg) of the same compound?
Answer: Its AUC(0-t) is 304 ng·h/mL.

Question: What about the Cmax (Pharmacokinetic study; po, p.o. 10 mg/kg) of the same compound?
Answer: The Cmax was 53.7 ng/mL.

Question: And the half-life (Pharmacokinetic study; po, p.o. 10 mg/kg)?
Answer: The half-life was 3.71 h.

Question: And the “Efflux rate (%)” value [1]?
Answer: Its value is 13.7% and 13.7 ± 0.5%.

Question: And the Papp A→B at 30 min ([2]; Caco-2, 30 min, read-out: AP→BL Papp)?
Answer: The Papp A→B at 30 min was 0.106 ± 0.01 ×10⁻⁶ cm/s.

Question: What about the Papp B→A at 30 min ([2]; Caco-2, 30 min, read-out: BL→AP Papp) of the same compound?
Answer: Its Papp B→A at 30 min is 0.011 ± 0.01 ×10⁻⁶ cm/s.

Question: What about the Papp A→B at 60 min ([2]; Caco-2, 60 min, read-out: AP→BL Papp) of the same compound?
Answer: Its Papp A→B at 60 min is 0.318 ± 0.06 ×10⁻⁶ cm/s.

Question: What about the Papp B→A at 60 min ([2]; Caco-2, 60 min, read-out: BL→AP Papp) of the same compound?
Answer: Its Papp B→A at 60 min is 0.117 ± 0.02 ×10⁻⁶ cm/s.

Question: And the Papp A→B at 120 min ([2]; Caco-2, 120 min, read-out: AP→BL Papp)?
Answer: Its Papp A→B at 120 min is 2.23 ×10⁻⁶ cm/s.

Question: What about the Papp B→A at 120 min ([2]; Caco-2, 120 min, read-out: BL→AP Papp) of the same compound?
Answer: The Papp B→A at 120 min was 0.305 ×10⁻⁶ cm/s.

Question: And the Ki-67 positive area (Ki-67)?
Answer: The Ki-67 positive area was “less than 20%”.

Question: And the “weight loss or adverse effects” value [3]?
Answer: Its value is “No significant weight loss or adverse effects”.
